Data: ChEMBL document CHEMBL5620430, “Design, synthesis and biological evaluation of indazole derivatives as selective covalent inhibitors of FGFR4 in wild-type and gatekeeper mutants” (Eur J Med Chem, 2023)
Calls of active or inactive are those of the source. No cut-off for these calls is given here.

Experiments:
[1] = Metabolic stability in liver microsomes (unknown origin) assessed as half life; assay type: ADME, Microsome
Hep 3B2 = assay: Antiproliferative activity against human Hep3B cells measured after 24 to 48 hrs by MTT assay; assay type: functional, cell-based
HepG2 = assay: Antiproliferative activity against human HepG2 cells measured after 24 to 48 hrs by MTT assay; assay type: functional, cell-based
[2] = Half life in Sprague-Dawley rat at 2 mg/kg, iv by LC-MS/MS analysis; assay type: ADME, organism-based; conditions: in vivo
[3] = Half life in Sprague-Dawley rat at 10 mg/kg, po by LC-MS/MS analysis; assay type: ADME, organism-based; conditions: in vivo
[4] = Tmax in Sprague-Dawley rat at 2 mg/kg, iv by LC-MS/MS analysis; assay type: ADME, organism-based; conditions: in vivo
[5] = Cmax in Sprague-Dawley rat at 2 mg/kg, iv by LC-MS/MS analysis; assay type: ADME, organism-based; conditions: in vivo
[6] = AUC (0 to t) in Sprague-Dawley rat at 2 mg/kg, iv by LC-MS/MS analysis; assay type: ADME, organism-based; conditions: in vivo
[7] = MRT (0 to t) in Sprague-Dawley rat at 10 mg/kg, po by LC-MS/MS analysis; assay type: ADME, organism-based; conditions: in vivo
[8] = Observed clearance in Sprague-Dawley rat at 2 mg/kg, iv by LC-MS/MS analysis; assay type: ADME, organism-based; conditions: in vivo
[9] = Oral bioavailability in Sprague-Dawley rat at 10 mg/kg by LC-MS/MS analysis; assay type: ADME, organism-based; conditions: in vivo
[10] = target: T1, Fibroblast growth factor receptor 4 (Homo sapiens, UniProt P22455); assay: Inhibition of FGFR4 in human Huh-7 cells assessed as inhibition of MEK phosphorylation measured after 2 hrs by Western blot analysis; assay type: cell-based
T1 sequence (P22455 22-802 limits assumed): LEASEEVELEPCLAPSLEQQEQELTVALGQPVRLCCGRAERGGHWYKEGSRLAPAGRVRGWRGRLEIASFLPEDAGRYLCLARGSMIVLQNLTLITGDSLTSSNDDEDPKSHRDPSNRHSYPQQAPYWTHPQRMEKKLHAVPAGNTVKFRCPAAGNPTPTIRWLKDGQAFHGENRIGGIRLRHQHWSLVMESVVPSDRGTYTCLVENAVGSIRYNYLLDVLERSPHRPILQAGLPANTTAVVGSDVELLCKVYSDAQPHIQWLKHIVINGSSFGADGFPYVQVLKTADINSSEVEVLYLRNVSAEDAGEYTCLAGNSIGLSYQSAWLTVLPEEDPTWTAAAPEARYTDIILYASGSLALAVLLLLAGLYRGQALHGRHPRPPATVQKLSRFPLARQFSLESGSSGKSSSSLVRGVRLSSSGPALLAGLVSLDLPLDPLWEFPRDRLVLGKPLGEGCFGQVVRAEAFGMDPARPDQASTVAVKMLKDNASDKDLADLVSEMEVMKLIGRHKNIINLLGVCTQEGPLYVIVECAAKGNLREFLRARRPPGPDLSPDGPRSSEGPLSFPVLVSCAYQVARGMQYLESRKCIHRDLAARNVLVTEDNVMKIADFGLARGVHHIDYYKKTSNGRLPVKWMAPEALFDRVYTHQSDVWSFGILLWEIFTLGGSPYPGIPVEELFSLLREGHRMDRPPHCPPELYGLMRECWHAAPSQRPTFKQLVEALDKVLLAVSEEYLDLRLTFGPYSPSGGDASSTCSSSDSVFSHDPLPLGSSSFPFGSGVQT

[11] = target: T1, Fibroblast growth factor receptor 4; assay: Inhibition of FGFR4 in human Huh-7 cells assessed as inhibition of ERK1/2 phosphorylation measured after 2 hrs by Western blot analysis; assay type: cell-based
[12] = target: T1, Fibroblast growth factor receptor 4; assay: Inhibition of FGFR4 in human Huh-7 cells assessed as inhibition of MEK phosphorylation at 0.5 uM by Western blot analysis; assay type: cell-based; conditions: time <= 24.0 hrs, TDE = time-dependent effect
[13] = target: T1, Fibroblast growth factor receptor 4; assay: Inhibition of FGFR4 in human Huh-7 cells assessed as inhibition of ERK1/2 phosphorylation at 0.5 uM by Western blot analysis; assay type: cell-based; conditions: time <= 24.0 hrs, TDE = time-dependent effect
[14] = target: T1, Fibroblast growth factor receptor 4; assay: Inhibition of FGFR4 phosphorylation in human Huh-7 cells at 120 nM by Western blot analysis; assay type: cell-based
[15] = target: T1, Fibroblast growth factor receptor 4; assay: Inhibition of FGFR4 in human Huh-7 cells assessed as inhibition of MEK phosphorylation incubated for 2 hrs followed by compound washout and measured upto 8 hrs by Western blot analysis; assay type: cell-based
Huh-7 [16] = assay: Inhibition of colony formation in human Huh-7 cells assessed as reduction in number of colonies at 10 to 270 nM measured for 12 days; assay type: functional, cell-based; conditions: dose 10-270 nM, time 12.0 day
Huh-7 [17] = assay: Induction of cell cycle arrest in human Huh-7 cells assessed as accumulation of cells at G0/G1 phase at 1 to 2 uM measured after 48 hrs by propidium iodide staining based flow cytometry analysis; assay type: functional; conditions: dose 1-2 µM
Huh-7 [18] = assay: Induction of apoptosis in human Huh-7 cells assessed as late apoptotic cells at 1 uM measured after 48 hrs by AnnexinV-FITC/PI staining based flow cytometry (reference value: 2.55%); assay type: functional
Huh-7 [19] = assay: Induction of apoptosis in human Huh-7 cells assessed as late apoptotic cells at 2 uM measured after 48 hrs by AnnexinV-FITC/PI staining based flow cytometry (reference value: 2.55%); assay type: functional
Huh-7 [20] = assay: Antitumor activity against human Huh-7 cells xenografted in NSG mouse assessed as suppression of tumor growth at 20 mg/kg, ip administered twice per day for 2 weeks relative to control; assay type: functional
Huh-7 [21] = assay: Antitumor activity against human Huh-7 cells xenografted in ip dosed NSG mouse assessed as suppression of tumor growth administered twice per day for 2 weeks; assay type: functional, organism-based; conditions: dose 20-40 mg/kg
Huh-7 [22] = assay: Antitumor activity against human Huh-7 cells xenografted in ip dosed NSG mouse assessed as decrease in tumor weight administered twice per day for 2 weeks; assay type: functional, organism-based; conditions: dose 20-40 mg/kg
Huh-7 [23] = assay: Antitumor activity against human Huh-7 cells xenografted in ip dosed NSG mouse assessed as decrease in Ki-67 expression administered twice per day for 2 weeks; assay type: functional, organism-based; conditions: dose 20-40 mg/kg
Huh-7 [24] = assay: Antitumor activity against human Huh-7 cells xenografted in ip dosed NSG mouse assessed as decrease in FGFR4 phosphorylation level administered twice per day for 2 weeks; assay type: functional, organism-based; conditions: dose 20-40 mg/kg
[25] = Toxicity in NSG mouse assessed as effect on heart at 20 to 40 mg/kg by H and E staining based analysis; assay type: organism-based; conditions: in vivo, dose 20-40 mg/kg
[26] = Toxicity in NSG mouse assessed as effect on spleen at 20 to 40 mg/kg by H and E staining based analysis; assay type: organism-based; conditions: in vivo, dose 20-40 mg/kg
[27] = Toxicity in NSG mouse assessed as effect on kidney at 20 to 40 mg/kg by H and E staining based analysis; assay type: organism-based; conditions: in vivo, dose 20-40 mg/kg
[28] = Toxicity in NSG mouse assessed as lethality at 20 to 40 mg/kg […]; assay type: organism-based; conditions: in vivo, dose 20-40 mg/kg
[29] = Toxicity in NSG mouse assessed as effect on body weight at 20 to 40 mg/kg […]; assay type: organism-based; conditions: in vivo, dose 20-40 mg/kg
[30] = Toxicity in NSG mouse assessed as effect on AST level at 20 to 40 mg/kg […]; assay type: organism-based; conditions: in vivo, dose 20-40 mg/kg
[31] = Toxicity in NSG mouse assessed as effect on ALT level at 20 to 40 mg/kg […]; assay type: organism-based; conditions: in vivo, dose 20-40 mg/kg
[32] = Toxicity in NSG mouse assessed as effect on ALP level at 20 to 40 mg/kg […]; assay type: organism-based; conditions: in vivo, dose 20-40 mg/kg
[33] = Toxicity in NSG mouse assessed as effect on ALB level at 20 to 40 mg/kg […]; assay type: organism-based; conditions: in vivo, dose 20-40 mg/kg
[34] = Toxicity in NSG mouse assessed as effect on CK level at 20 to 40 mg/kg […]; assay type: organism-based; conditions: in vivo, dose 20-40 mg/kg
[35] = Toxicity in NSG mouse assessed as effect on LDH level at 20 to 40 mg/kg […]; assay type: organism-based; conditions: in vivo, dose 20-40 mg/kg
[36] = Toxicity in NSG mouse assessed as effect on LDL-C level at 20 to 40 mg/kg […]; assay type: organism-based; conditions: in vivo, dose 20-40 mg/kg
[37] = Toxicity in NSG mouse assessed as effect on UREA level at 20 to 40 mg/kg […]; assay type: organism-based; conditions: in vivo, dose 20-40 mg/kg
[38] = target: Fibroblast growth factor receptor 1 (Homo sapiens, UniProt P11362)
Fibroblast growth factor receptor 1, sequence (P11362 whole entry): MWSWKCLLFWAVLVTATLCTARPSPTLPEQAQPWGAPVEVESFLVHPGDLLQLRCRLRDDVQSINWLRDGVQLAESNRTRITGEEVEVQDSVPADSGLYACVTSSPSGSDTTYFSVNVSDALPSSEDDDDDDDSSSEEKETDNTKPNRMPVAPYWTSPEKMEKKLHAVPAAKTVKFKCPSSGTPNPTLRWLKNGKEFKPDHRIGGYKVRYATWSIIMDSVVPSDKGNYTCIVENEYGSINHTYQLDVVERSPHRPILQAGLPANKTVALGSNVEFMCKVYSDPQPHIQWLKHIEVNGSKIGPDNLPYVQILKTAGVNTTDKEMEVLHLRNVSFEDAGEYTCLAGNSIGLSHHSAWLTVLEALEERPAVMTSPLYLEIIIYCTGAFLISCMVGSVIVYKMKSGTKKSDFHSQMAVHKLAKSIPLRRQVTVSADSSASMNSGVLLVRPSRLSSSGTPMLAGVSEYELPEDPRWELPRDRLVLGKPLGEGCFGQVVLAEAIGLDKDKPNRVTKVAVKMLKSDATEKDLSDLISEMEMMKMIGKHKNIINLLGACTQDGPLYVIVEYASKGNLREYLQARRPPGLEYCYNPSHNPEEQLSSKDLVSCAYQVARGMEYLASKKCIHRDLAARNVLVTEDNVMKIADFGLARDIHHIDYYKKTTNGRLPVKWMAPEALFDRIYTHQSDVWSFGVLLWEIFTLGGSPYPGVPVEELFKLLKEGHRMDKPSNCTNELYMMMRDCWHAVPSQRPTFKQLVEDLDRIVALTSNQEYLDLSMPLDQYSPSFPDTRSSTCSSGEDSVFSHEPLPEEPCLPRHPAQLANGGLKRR
Description: Inhibition of FGFR1 (unknown origin)

[39] = target: Fibroblast growth factor receptor 2 (Homo sapiens, UniProt P21802)
Fibroblast growth factor receptor 2, sequence (P21802 whole entry): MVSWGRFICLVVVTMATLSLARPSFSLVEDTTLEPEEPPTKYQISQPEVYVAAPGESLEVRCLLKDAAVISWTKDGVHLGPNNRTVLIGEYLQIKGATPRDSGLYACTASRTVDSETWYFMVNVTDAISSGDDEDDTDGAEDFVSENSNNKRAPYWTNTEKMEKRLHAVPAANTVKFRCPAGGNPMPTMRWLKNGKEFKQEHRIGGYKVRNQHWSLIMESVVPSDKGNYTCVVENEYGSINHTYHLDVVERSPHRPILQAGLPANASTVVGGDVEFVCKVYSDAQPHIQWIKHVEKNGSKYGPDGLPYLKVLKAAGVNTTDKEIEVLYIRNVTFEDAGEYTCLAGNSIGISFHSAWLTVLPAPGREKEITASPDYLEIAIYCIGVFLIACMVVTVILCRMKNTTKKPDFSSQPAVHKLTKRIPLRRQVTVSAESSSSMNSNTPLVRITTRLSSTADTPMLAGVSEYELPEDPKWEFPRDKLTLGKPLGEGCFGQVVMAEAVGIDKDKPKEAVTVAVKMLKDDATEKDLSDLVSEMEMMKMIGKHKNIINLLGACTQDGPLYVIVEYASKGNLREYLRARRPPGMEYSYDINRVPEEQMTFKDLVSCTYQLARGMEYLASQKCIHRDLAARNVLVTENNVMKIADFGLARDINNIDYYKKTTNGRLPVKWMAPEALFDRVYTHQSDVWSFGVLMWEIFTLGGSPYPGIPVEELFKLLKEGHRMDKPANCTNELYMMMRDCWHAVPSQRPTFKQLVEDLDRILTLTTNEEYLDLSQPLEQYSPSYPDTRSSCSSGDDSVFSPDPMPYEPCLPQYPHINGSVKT
Description: Inhibition of FGFR2 (unknown origin)

[40] = target: Fibroblast growth factor receptor 3 (Homo sapiens, UniProt P22607)
Fibroblast growth factor receptor 3, sequence (P22607 whole entry): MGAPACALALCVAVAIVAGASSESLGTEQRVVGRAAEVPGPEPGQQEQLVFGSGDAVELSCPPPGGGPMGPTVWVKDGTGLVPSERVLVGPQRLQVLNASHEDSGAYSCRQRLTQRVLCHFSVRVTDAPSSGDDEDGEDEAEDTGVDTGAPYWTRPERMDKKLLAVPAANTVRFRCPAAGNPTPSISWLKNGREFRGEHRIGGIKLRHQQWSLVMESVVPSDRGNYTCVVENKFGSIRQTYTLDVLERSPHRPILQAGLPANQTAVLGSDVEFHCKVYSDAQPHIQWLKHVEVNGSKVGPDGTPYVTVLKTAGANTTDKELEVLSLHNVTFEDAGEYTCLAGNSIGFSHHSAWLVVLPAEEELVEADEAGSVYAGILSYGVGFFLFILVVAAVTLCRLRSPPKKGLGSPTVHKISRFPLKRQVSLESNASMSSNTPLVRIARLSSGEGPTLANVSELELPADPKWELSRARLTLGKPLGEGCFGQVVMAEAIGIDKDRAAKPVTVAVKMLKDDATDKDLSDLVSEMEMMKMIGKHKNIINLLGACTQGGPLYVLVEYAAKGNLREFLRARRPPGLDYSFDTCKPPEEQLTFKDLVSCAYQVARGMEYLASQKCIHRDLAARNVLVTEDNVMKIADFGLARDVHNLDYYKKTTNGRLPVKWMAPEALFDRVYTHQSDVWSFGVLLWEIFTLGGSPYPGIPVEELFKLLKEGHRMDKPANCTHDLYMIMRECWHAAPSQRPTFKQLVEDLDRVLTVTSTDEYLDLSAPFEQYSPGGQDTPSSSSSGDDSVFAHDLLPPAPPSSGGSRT
Description: Inhibition of FGFR3 (unknown origin)

Huh-7 [41] = assay: cells; conditions: Homo sapiens
Description: Antiproliferative activity against human Huh-7 cells measured after 24 to 48 hrs by MTT assay

BaF3 = assay: cells; conditions: Mus musculus
Description: Antiproliferative activity against mouse BaF3 cells harbouring ETV6-FGFR4-N535K mutant measured after 24 to 48 hrs by MTT assay

## C=CC(=O)Nc1cc2c(cc1-c1n[nH]c3ccc(O[C@H](C)c4c(Cl)cncc4Cl)cc13)CCN(C)C2
[1]
  half-life: 8.99 min
Hep 3B2
  IC50: 0.038 µM
HepG2
  IC50: > 5 µM
[2]
  half-life: 7 h
[3]
  half-life: 2.59 h
[4]
  Tmax: 4.8 min
[5]
  Cmax: 214 ng/mL
[6]
  AUC(0-t): 192 ng·h/mL
[7]
  MRT last: 3.04 h
[8]
  clearance: 174 mL/min/kg
[9]
  bioavailability: 1.36%
[10]
  inhibition: Dose-Dependent Effect
[11]
  inhibition: Dose-Dependent Effect
[12]
  inhibition: Tde
[13]
  inhibition: Tde
[14]
  inhibition: Active
[15]
  inhibition: Active
Huh-7 [16]
  inhibition: Active
Huh-7 [17]
  Activity: Active
Huh-7 [18]
  Activity: 7.46%
Huh-7 [19]
  Activity: 11.39%
Huh-7 [20]
  Activity: 60.2%
Huh-7 [21]
  Activity: Dose-Dependent Effect
Huh-7 [22]
  Activity: Dose-Dependent Effect
Huh-7 [23]
  Activity: Dose-Dependent Effect
Huh-7 [24]
  Activity: Dose-Dependent Effect
[25]
  Activity: Non-Toxic
[26]
  Activity: Non-Toxic
[27]
  Activity: Non-Toxic
[28]
  Activity: Non-Toxic
[29]
  Activity: Non-Toxic
[30]
  Activity: Non-Toxic
[31]
  Activity: Non-Toxic
[32]
  Activity: Non-Toxic
[33]
  Activity: Non-Toxic
[34]
  Activity: Non-Toxic
[35]
  Activity: Non-Toxic
[36]
  Activity: Non-Toxic
[37]
  Activity: Non-Toxic
[38]
  IC50: > 3 µM
[39]
  IC50: > 3000 µM
[40]
  IC50: > 3000 µM
Huh-7 [41]
  IC50: 0.021 µM
BaF3
  IC50: 0.172 µM
